Results on 8 molecules are retold here after patent US11339171B2, “MDM2 inhibitors” (Gan & Lee Pharmaceuticals, priority 2017, dated 2022).

pIC50: −log10 of the molar value.

The pIC50 is the negative decadic logarithm of the IC50, by convention in mol/L.

Assay [1] deals with T1, MDM2 (Homo sapiens, UniProt Q00987).
T1 construct: made in house
The assay can be described thus: Inhibition test of MDM2-P53 (GST-MDM2, Biotin-P53, Anti-GST-Tb, SA-XL665). Format: binding. The procedure, abridged:
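Binding was measured by TR-FRET with GST-MDM2 at 4 nM final in PBS with 0.1% BSA, 5 mM DTT and 1 mM AEBSF. Compounds were tested as twelve-point 5-fold dilutions and incubated with the detection mix for 90 min at 25 °C with shaking before plate-reader reading and curve fitting.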

The subject of assay [2] is human osteosarcoma cell line SJSA-1. Nature of the assay: Inhibition of proliferation of human osteosarcoma cell line SJSA-1 (DAPI staining, In Cell Analyzer). Particulars: Homo sapiens, SJSA-1, 72 h, read-out: IC50 (nM), inhibitory activity on proliferation of human osteosarcoma cell line SJSA-1, SJSA-1, incubated 72 h.
Description: 2.2 Experiment Preparation:
2.2.1 Preparation of a culture medium for human osteosarcoma cell line SJSA-1: RPMI1640+10% FBS+1% penicillin/streptomycin
2.2.2 Preparation of a test compound solution:
a. the test compound solution with a certain concentration was taken, and diluted with the culture medium to obtain a compound solution with a final concentration of 20 μM;
b. 200 μL of a culture medium containing 0.2% DMSO (dimethyl sulfoxide) was added into H2-H10 of a 96-well plate; 300 μl of the above solution was added into H1; and
c. 100 μL was taken out from well H1, added into H2, and mixed well; then 100 μl of the resultant solution was taken and added into H3, and dilution was carried out in sequence until H9 to obtain the 3-fold serial dilution of the test compound.
2.3 Experimental Process:
2.3.1 SJSA-1 cells were inoculated into a 96-well cell plate with black transparent bottom at 4000 cells/100 μl/well, and cultured overnight at 37° C.;
2.3.3 Fixation: the cell plate was taken out, the culture medium was removed, and 50 μL of 4% paraformaldehyde solution was added to each well to fix for 10 min;
2.3.4 50 μl of 0.1 M glycine was added to neutralize for 10 min;
2.3.5 Washing was performed with 1×PBS (phosphate buffer solution pH7.2) twice;
2.3.6 Permeabilization: 50 μL of 0.2% TritonX-100 (Triton) was added per well, and permeabilization was carried out at room temperature for 10 min;
2.3.7 Washing was performed with 1×PBS (phosphate buffer solution pH7.2) twice;
2.3.9 Washing was performed with 1×PBS (phosphate buffer solution pH7.2) for three times; and
2.3.10 Scanning and analysis were performed by In cell analyzer.
The inhibition rate of each compound at each concentration point was calculated according to the following formula, and curve fitting was performed by GraphPad Prism 6.0 software to obtain the IC50 value.

T1 sequence (Q00987 whole entry): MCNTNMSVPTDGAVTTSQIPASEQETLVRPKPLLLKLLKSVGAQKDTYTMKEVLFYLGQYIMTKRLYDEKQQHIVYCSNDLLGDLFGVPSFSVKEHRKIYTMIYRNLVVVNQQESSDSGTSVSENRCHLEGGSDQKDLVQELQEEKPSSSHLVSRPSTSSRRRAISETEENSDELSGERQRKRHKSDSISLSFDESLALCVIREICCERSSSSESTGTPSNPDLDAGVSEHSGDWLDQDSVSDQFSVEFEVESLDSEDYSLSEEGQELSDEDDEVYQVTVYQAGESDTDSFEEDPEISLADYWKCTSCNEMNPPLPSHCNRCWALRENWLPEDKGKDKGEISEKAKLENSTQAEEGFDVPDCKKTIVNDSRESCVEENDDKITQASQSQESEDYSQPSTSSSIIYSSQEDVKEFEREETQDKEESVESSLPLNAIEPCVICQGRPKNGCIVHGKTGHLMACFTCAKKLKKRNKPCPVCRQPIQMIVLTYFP

The molecule `CNC(=O)c1ccc(OC)c(-c2nc3c(n2C(C)C)[C@@]2(C(=O)Nc4cc(Cl)ccc42)N(c2cc(Cl)ccc2C)C3=O)c1` [Example S-21, (S)-3-(6-chloro-5′-(5-chloro-2-methylphenyl)-3′-isopropyl-2,6′-dioxo-5′,6′-dihydro-3′H-spiro[dihydroindole-3,4′-pyrrolo[3,4-d]imidazole]-2′-yl)-4-methoxy-N-methylbenzamide] gave a pIC50 in assay [1] of 8.87. Besides, the IC50 in assay [2] was 62.2 nM.

In turn, `COc1nc(OCCF)ncc1-c1nc2c(n1C(C)C)[C@@]1(C(=O)Nc3cc(Cl)ccc31)N(c1cccc(Cl)c1)C2=O` [Example S-171, (S)-6-chloro-5′-(3-chlorophenyl)-2′-(2-(2-fluoroethoxy)-4-methoxypyrimidin-5-yl)-3′-isopropyl-3′H-spiro[dihydroindole-3,4′-pyrrolo[3,4-d]imidazole]-2,6′(5′H)-dione] showed a pIC50 in assay [1] of 8.54. Also, the IC50 in assay [2] is 379 nM.

Turning to `COc1cc(C(C)C)ncc1-c1nc2c(n1C(C)C)[C@@]1(C(=O)Nc3cc(Cl)ccc31)N(c1cc(Cl)cnc1C)C2=O` [Example S-166, (S)-6-chloro-5′-(5-chloro-2-methylpyridin-3-yl)-3′-isopropyl-2′-(6-isopropyl-4-methoxypyridin-3-yl)-3′H-spiro[dihydroindole-3,4′-pyrrolo[3,4-d]imidazole]-2,6′(5′H)-dione], in assay [1], the pIC50 was 8.73. Moreover, in assay [2], the IC50 is 38.1 nM.

With `COc1cc(OC)c(-c2nc3c(n2C(C)C)[C@@]2(C(=O)Nc4cc(Cl)ccc42)N(c2cc(F)cc(Cl)c2)C3=O)cn1` [Example S-175, (S)-6-chloro-5′-(3-chloro-5-fluorophenyl)-2′-(4,6-dimethoxypyridin-3-yl)-3′-isopropyl-3′H-spiro[dihydroindole-3,4′-pyrrolo[3,4-d]imidazole]-2,6′(5′H)-dione], in assay [1], the pIC50 is 8.71. Besides, in assay [2], the IC50 amounted to 49.2 nM.

Turning to `COc1cnccc1-c1nc2c(n1C(C)C)[C@]1(C(=O)Nc3cc(Cl)ccc31)N(c1cc(Cl)ccc1C)C2=O` [Example R-10, (R)-6-chloro-5′-(5-chloro-2-methylphenyl)-3′-isopropyl-2′-(3-methoxypyridin-4-yl)-3′H-spiro[dihydroindole-3,4′-pyrrolo[3,4-d]imidazole]-2,6′(5′H)-dione], the pIC50 in assay [1] is 6.93. Moreover, the IC50 in assay [2] was 2170 nM.

In the case of `COc1ncc(-c2nc3c(n2C(C)C)[C@]2(C(=O)Nc4cc(Cl)ccc42)N(c2cc(C)cc(Cl)c2)C3=O)c(OC)n1` [Example R-51, (R)-6-chloro-5′-(3-chloro-5-methylphenyl)-2′-(2,4-dimethoxypyrimidin-5-yl)-3′-isopropyl-3′H-spiro[dihydroindole-3,4′-pyrrolo[3,4-d]imidazole]-2,6′(5′H)-dione], in assay [1], the pIC50 is 6.26. In assay [2], the IC50 was found to be 9520 nM.

In assay [1], `COc1cc(N(C)C)ncc1-c1nc2c(n1C(C)C)[C@]1(C(=O)Nc3cc(Cl)ccc31)N(c1cc(Cl)cnc1C)C2=O` [Example R-155, (R)-6-chloro-5′-(5-chloro-2-methylpyridin-3-yl)-2′-(6-(dimethylamino)-4-methoxypyridin-3-yl)-3′-isopropyl-3′H-spiro[dihydroindole-3,4′-pyrrolo[3,4-d]imidazole]-2,6′(5′H)-dione] showed a pIC50 of 7.02. For the same molecule, the IC50 in assay [2] turned out to be 1520 nM.

On to `COc1nc(OC(C)C)ncc1-c1nc2c(n1C(C)C)[C@@]1(C(=O)Nc3cc(Cl)ccc31)N(c1cc(Cl)ccc1C)C2=O` [Example S-126, (S)-6-chloro-5′-(5-chloro-2-methylphenyl)-2′-(2-isopropoxy-4-methoxypyrimidin-5-yl)-3′-isopropyl-3′H-spiro[dihydroindole-3,4′-pyrrolo[3,4-d]imidazole]-2,6′(5′H)-dione], for which the pIC50 in assay [1] is 8.82. The IC50 in assay [2] was 79.6 nM.
